# Like-named read-outs stand apart in the source and are kept apart here.
# Assay: Phase 1 open-label, fixed-sequence, single-ascending dose and food-effect PK study of MT1621 in adult healthy subjects
# Type: in vivo, human
# Conditions: for half-life: read-out: t½ (converted)
# Experimental: A phase 1 study was conducted as an open-label, fixed-sequence, single-ascending dose study in adult healthy subjects designed to evaluate the safety, tolerability, PK, and food-effect of MT1621 (dC and dT). To evaluate the PK of MT1621, the combination was administered at three different doses. Treatment A was a 43.3 mg/kg dose of MT1621 (i.e., a 43.3 mg/kg dose of dC and a 43.3 mg/kg dose of dT (each approximately equivalent to 1 dose of a 130 mg/kg daily dose, divided 3 times daily [TID])) in healthy male and female subjects under fasting conditions; Treatment B was an 86.7 mg/kg dose of MT1621 (i.e., a 86.7 mg/kg dose of dC and a 86.7 mg/kg dose of dT (each approximately equivalent to 1 dose of a 260 mg/kg daily dose, divided TID)) in healthy male and female subjects under fasting conditions; and Treatment C was a 133.3 mg/kg dose of MT1621 (i.e., a 133.3 mg/kg dose of dC and a 133.3 mg/kg dose of dT (each approximately equivalent to a 400 mg/kg daily dose, divided TID)) in healthy male and female subjects under fasting conditions. Additionally, Treatment D was a 133.3 mg/kg dose of MT1621 (i.e., a 133.3 mg/kg dose of dC and a 133.3 mg/kg dose of dT (each approximately equivalent to a 400 mg/kg daily dose, divided TID) in healthy male and female subjects under fed conditions, to determine the effect of a high-fat meal on the single-dose PK of MT1621.
# Methodology of open-label, Phase 1, fixed-sequence, single-dose, dose escalation, and food-effect study. Fourteen (14) healthy, adult, male and female subjects were enrolled with an approximately equal distribution (at least 40% of each sex) between male and female subjects.
# On Day 1 of each period, subjects received 1 of 3 dose levels of MT1621 under fasting conditions as escalating single doses over 3 periods in Part A (Treatments A, B, and C in Periods 1, 2, and 3, respectively) and with the highest dose under fed conditions in Part B (Treatment D in Period 4). Four (4) of 14 subjects that completed Part A (Periods 1 to 3) could not complete Part B (Treatment D in Period 4) during the original confinement. These subjects were then to return to the clinical unit and continue the study to complete Part B (Treatment D in Period 4); 2 of the 4 subjects completed Part B.
# Each treatment was assessed by blood and urine PK sampling pre-dose and up to 48 hours post-dose for the determination of dC and dT in plasma and urine PK, and possible future analysis of blood for PD biomarkers.
# A washout period of at least 2 days without drug between each treatment administration was maintained. Fourteen subjects were enrolled in the study, and 12 subjects completed the study. Data from 14 subjects were included in the PK analysis of Periods 1, 2, and 3 and data from 12 subjects were included in the PK analysis of Period 4.
# Study drug administered in Example 1 was 0.5 g dC and 0.5 g dT powders for solution and were reconstituted in juice or water.
# After reconstitution in a fixed amount of water or juice, the solution was administered via measured volume to provide the amounts specified in Studies A, B, C, and D.
# MT1621 was administered orally at Hour 0 on Day 1, following an overnight fast for Treatments A, B, and C and within 5 minutes of consumption of a standardized high-fat breakfast (which included eggs, bacon, and toast with butter) for Treatment D.
# Blood samples for the determination of plasma dC and dT concentrations were collected on Day 1 of each period at pre-dose (0 hour), and at 0.25, 0.5, 1, 1.5, 2, 3, 4, 5, 6, 8, 12, 24, and 48 after study drug administration. In Period 4, blood was collected for the 48-hour PK sample; for Periods 1 through 3, the 48-hour PK sample was collected at the same time as the pre-dose PK sample from the next period so only 1 sample was collected for both PK time points. It should be pointed out that Periods 1-3 used sampling up to 24 hours for PK while Period 4 used the complete 48-hour profile. […]
# [1] = 100*(test/reference): 133.3 mg/kg MT1621 fed vs fasted, baseline-adjusted plasma
# [2] = Treatment A: single 43.3 mg/kg MT1621, fasted, baseline-adjusted plasma, arithmetic mean ± SD
# [3] = Treatment B: single 86.7 mg/kg MT1621, fasted, baseline-adjusted plasma, arithmetic mean ± SD
# [4] = Treatment C: single 133.3 mg/kg MT1621, fasted, baseline-adjusted plasma, arithmetic mean ± SD
# [5] = Treatment D: single 133.3 mg/kg MT1621, fed (high-fat breakfast), baseline-adjusted plasma, arithmetic mean ± SD
# [6] = across the 3 fasted dose levels (Treatments A, B, C), plasma
smiles,measurement,setting,value
"Cc1cn([C@H]2C[C@H](O)[C@@H](CO)O2)c(=O)[nH]c1=O [dT, β-D-2′-deoxythymidine]","increase in baseline adjusted AUC, fed compared to fasted","133.3 mg/kg MT1621, plasma",74%
same,"increase in baseline adjusted Cmax, fed compared to fasted","133.3 mg/kg MT1621, plasma",27%
same,AUC0-t GMR (%),[1],174.38%
same,Cmax GMR (%),[1],127.39%
same,AUC%extrap,[2],46.24 NC %
same,Kel,[2],0.1569 NC 1/hr
same,AUC%extrap,[3],6.481 ± 5.9830%
same,Kel,[3],0.0932 ± 0.07205 h⁻¹
same,AUC%extrap,[4],1.954 ± 1.6169%
same,Kel,[4],0.09785 ± 0.06094 h⁻¹
same,AUC%extrap,[5],1.244 ± 1.1349%
same,Kel,[5],0.2445 ± 0.2863 h⁻¹
same,"dose proportionality of AUC (total extent of exposure, AUC0-t and AUC0-inf)",[6],neither AUC nor Cmax was dose proportional
same,dose proportionality of Cmax,[6],neither AUC nor Cmax was dose proportional
same,Vd/F,"both sexes, human, oral, Treatment D: single 133.3 mg/kg MT1621, fed (high-fat breakfast), baseline-adjusted plasma, arithmetic mean ± SD, read-out: Vz/F",6220 ± 2880 L/kg
same,half-life,"both sexes, human, plasma, oral, 43.3 mg/kg, Treatment A: single 43.3 mg/kg MT1621, fasted, baseline-adjusted plasma, arithmetic mean ± SD",4.42 h
same,AUC(0-inf),"both sexes, human, plasma, oral, 43.3 mg/kg, Treatment A: single 43.3 mg/kg MT1621, fasted, baseline-adjusted plasma, geometric mean (geometric CV %)",3.56 ng·h/mL
same,AUC(0-t),"both sexes, human, plasma, oral, 43.3 mg/kg, Treatment A: single 43.3 mg/kg MT1621, fasted, baseline-adjusted plasma, geometric mean (geometric CV %), read-out: AUC0-4",8.78 ng·h/mL
same,AUC(0-t),"both sexes, human, plasma, oral, 43.3 mg/kg, Treatment A: single 43.3 mg/kg MT1621, fasted, baseline-adjusted plasma, geometric mean (geometric CV %), read-out: AUC0-6",11.1 ng·h/mL
same,AUC(0-t),"both sexes, human, plasma, oral, 43.3 mg/kg, Treatment A: single 43.3 mg/kg MT1621, fasted, baseline-adjusted plasma, geometric mean (geometric CV %), read-out: AUC0-48",18.2 ng·h/mL
same,AUC(0-t),"both sexes, human, plasma, oral, 43.3 mg/kg, Treatment A: single 43.3 mg/kg MT1621, fasted, baseline-adjusted plasma, geometric mean (geometric CV %), read-out: AUC0-t",12.6 ng·h/mL
same,Cmax,"both sexes, human, plasma, oral, 43.3 mg/kg, Treatment A: single 43.3 mg/kg MT1621, fasted, baseline-adjusted plasma, geometric mean (geometric CV %), read-out: Cmax",6.19 ng/mL
same,Tmax,"both sexes, human, plasma, oral, 43.3 mg/kg, Treatment A: single 43.3 mg/kg MT1621, fasted, baseline-adjusted plasma, median (minimum, maximum), read-out: Tmax",0.516 h
same,half-life,"both sexes, human, plasma, oral, 86.7 mg/kg, Treatment B: single 86.7 mg/kg MT1621, fasted, baseline-adjusted plasma, arithmetic mean ± SD",10.4 ± 5.95 h
same,AUC(0-inf),"both sexes, human, plasma, oral, 86.7 mg/kg, Treatment B: single 86.7 mg/kg MT1621, fasted, baseline-adjusted plasma, geometric mean (geometric CV %)",67.2 ng·h/mL
same,AUC(0-t),"both sexes, human, plasma, oral, 86.7 mg/kg, Treatment B: single 86.7 mg/kg MT1621, fasted, baseline-adjusted plasma, geometric mean (geometric CV %), read-out: AUC0-4",21 ng·h/mL
same,AUC(0-t),"both sexes, human, plasma, oral, 86.7 mg/kg, Treatment B: single 86.7 mg/kg MT1621, fasted, baseline-adjusted plasma, geometric mean (geometric CV %), read-out: AUC0-6",23.1 ng·h/mL
same,AUC(0-t),"both sexes, human, plasma, oral, 86.7 mg/kg, Treatment B: single 86.7 mg/kg MT1621, fasted, baseline-adjusted plasma, geometric mean (geometric CV %), read-out: AUC0-48",82.1 ng·h/mL
same,AUC(0-t),"both sexes, human, plasma, oral, 86.7 mg/kg, Treatment B: single 86.7 mg/kg MT1621, fasted, baseline-adjusted plasma, geometric mean (geometric CV %), read-out: AUC0-t",31.7 ng·h/mL
same,Cmax,"both sexes, human, plasma, oral, 86.7 mg/kg, Treatment B: single 86.7 mg/kg MT1621, fasted, baseline-adjusted plasma, geometric mean (geometric CV %), read-out: Cmax",14.2 ng/mL
same,Tmax,"both sexes, human, plasma, oral, 86.7 mg/kg, Treatment B: single 86.7 mg/kg MT1621, fasted, baseline-adjusted plasma, median (minimum, maximum), read-out: Tmax",1.06 h
same,AUC(0-t),"both sexes, human, plasma, oral, 133.3 mg/kg, Treatment C, fasted, baseline-adjusted plasma, ANOVA on ln-transformed data, read-out: AUC0-t Geometric LSM, 133.3 mg/kg MT1621, Fasted (Reference)",91.2 ng·h/mL
same,Cmax,"both sexes, human, plasma, oral, 133.3 mg/kg, Treatment C, fasted, baseline-adjusted plasma, ANOVA on ln-transformed data, read-out: Cmax Geometric LSM, 133.3 mg/kg MT1621, Fasted (Reference)",31.5 ng/mL
same,half-life,"both sexes, human, plasma, oral, 133.3 mg/kg, Treatment C: single 133.3 mg/kg MT1621, fasted, baseline-adjusted plasma, arithmetic mean ± SD",8.76 ± 4.04 h
same,AUC(0-inf),"both sexes, human, plasma, oral, 133.3 mg/kg, Treatment C: single 133.3 mg/kg MT1621, fasted, baseline-adjusted plasma, geometric mean (geometric CV %)",144 ng·h/mL
same,AUC(0-t),"both sexes, human, plasma, oral, 133.3 mg/kg, Treatment C: single 133.3 mg/kg MT1621, fasted, baseline-adjusted plasma, geometric mean (geometric CV %), read-out: AUC0-4",53.1 ng·h/mL
same,AUC(0-t),"both sexes, human, plasma, oral, 133.3 mg/kg, Treatment C: single 133.3 mg/kg MT1621, fasted, baseline-adjusted plasma, geometric mean (geometric CV %), read-out: AUC0-6",60.6 ng·h/mL
same,AUC(0-t),"both sexes, human, plasma, oral, 133.3 mg/kg, Treatment C: single 133.3 mg/kg MT1621, fasted, baseline-adjusted plasma, geometric mean (geometric CV %), read-out: AUC0-48",114 ng·h/mL
same,AUC(0-t),"both sexes, human, plasma, oral, 133.3 mg/kg, Treatment C: single 133.3 mg/kg MT1621, fasted, baseline-adjusted plasma, geometric mean (geometric CV %), read-out: AUC0-t",91.2 ng·h/mL
same,Cmax,"both sexes, human, plasma, oral, 133.3 mg/kg, Treatment C: single 133.3 mg/kg MT1621, fasted, baseline-adjusted plasma, geometric mean (geometric CV %), read-out: Cmax",31.5 ng/mL
same,Tmax,"both sexes, human, plasma, oral, 133.3 mg/kg, Treatment C: single 133.3 mg/kg MT1621, fasted, baseline-adjusted plasma, median (minimum, maximum), read-out: Tmax",1.25 h
same,AUC(0-t),"both sexes, human, plasma, oral, 133.3 mg/kg, Treatment D, fed, baseline-adjusted plasma, ANOVA on ln-transformed data, read-out: AUC0-t Geometric LSM, 133.3 mg/kg MT1621, Fed (Test)",159 ng·h/mL
same,Cmax,"both sexes, human, plasma, oral, 133.3 mg/kg, Treatment D, fed, baseline-adjusted plasma, ANOVA on ln-transformed data, read-out: Cmax Geometric LSM, 133.3 mg/kg MT1621, Fed (Test)",40.1 ng/mL
same,half-life,"both sexes, human, plasma, oral, 133.3 mg/kg, Treatment D: single 133.3 mg/kg MT1621, fed (high-fat breakfast), baseline-adjusted plasma, arithmetic mean ± SD",5.35 ± 3.11 h
same,AUC(0-inf),"both sexes, human, plasma, oral, 133.3 mg/kg, Treatment D: single 133.3 mg/kg MT1621, fed (high-fat breakfast), baseline-adjusted plasma, geometric mean (geometric CV %)",149 ng·h/mL
same,AUC(0-t),"both sexes, human, plasma, oral, 133.3 mg/kg, Treatment D: single 133.3 mg/kg MT1621, fed (high-fat breakfast), baseline-adjusted plasma, geometric mean (geometric CV %), read-out: AUC0-4",74.4 ng·h/mL
same,AUC(0-t),"both sexes, human, plasma, oral, 133.3 mg/kg, Treatment D: single 133.3 mg/kg MT1621, fed (high-fat breakfast), baseline-adjusted plasma, geometric mean (geometric CV %), read-out: AUC0-6",119 ng·h/mL
same,AUC(0-t),"both sexes, human, plasma, oral, 133.3 mg/kg, Treatment D: single 133.3 mg/kg MT1621, fed (high-fat breakfast), baseline-adjusted plasma, geometric mean (geometric CV %), read-out: AUC0-48",141 ng·h/mL
same,AUC(0-t),"both sexes, human, plasma, oral, 133.3 mg/kg, Treatment D: single 133.3 mg/kg MT1621, fed (high-fat breakfast), baseline-adjusted plasma, geometric mean (geometric CV %), read-out: AUC0-t",159 ng·h/mL
same,Cmax,"both sexes, human, plasma, oral, 133.3 mg/kg, Treatment D: single 133.3 mg/kg MT1621, fed (high-fat breakfast), baseline-adjusted plasma, geometric mean (geometric CV %), read-out: Cmax",40.1 ng/mL
same,Tmax,"both sexes, human, plasma, oral, 133.3 mg/kg, Treatment D: single 133.3 mg/kg MT1621, fed (high-fat breakfast), baseline-adjusted plasma, median (minimum, maximum), read-out: Tmax",4 h
same,Tmax,"both sexes, human, plasma, oral, under fasted conditions, read-out: median Tmax",1 h
same,Tmax,"both sexes, human, plasma, oral, under fed conditions, read-out: median Tmax",3 h
same,plasma exposure compared to endogenous (baseline) concentrations,"following MT1621, all 3 dose levels",consistently higher
